Entries after “also recorded” stand apart in the source; their conditions may differ.
Experiments:
[1] = tested on: B16V mouse melanoma cells; assay: B16 V mouse melanoma cell test (melanin content after alpha-MSH stimulation); type: cell-based; settings: for Relative melanin content in %: DMSO control = 100, alpha-MSH 10^-8 M, absorption 405 nm
Procedure: B16V mouse melanoma cells (manufacturer: DSMZ; Article No.: ACC370) are transferred into RPMI medium (Invitrogen, Article No.: 31870), to which 10% of FBS (foetal bovine serum; Invitrogen, Article No.: 10499044), 2 mM L-glutamine (Invitrogen, Article No: 25030) and 1 mM sodium pyruvate (Invitrogen, Article No.: 11360) had additionally been added, and incubated at 37° C. and 5% CO2 for 72 h. The medium is separated off, and the cells are washed once with 10 ml of DPBS (Dulbecco's phosphate-buffered salines; Invitrogen, Article No.: 14190), and the medium is subsequently removed by suction. 1 ml of HyQtase cell detachment solution (Hyclone, Article No.: SV30030.01) is added to the cells. The bottle is swirled a number of times, and the HyQtase cell detachment solution is subsequently removed by suction. The cells are then incubated in the incubator at 37° C. and 5% CO2 for 5 min. The cells are taken up in the modified RPMI medium (see above), and the cell count is determined. To this end, the cells are stained with Trypan Blue and counted in a Neubauer counting chamber. The cells are subsequently sown out again in the modified RPMI medium (see above) in a defined cell count of 80,000 cells per well (6-well clear plate, TCT, PS (Nunc)).
The cells are incubated at 37° C. and 5% CO2 for 24 h, the medium is then removed. 1980 μl of the dilution of the respective substance to be tested are subsequently added. For this substance dilution, the substance is dissolved in DMSO and subsequently filtered through a sterile filter (0.2 μm, Millipore, Article No. SLLG013SL). The solution is then diluted with the modified RPMI medium (see above, but in this case the FBS content is only 5%) in such a way that the final concentration of the substance dilution has the desired final concentration as shown in Table 1.
20 μl of an alpha-MSH solution (alpha-melanocyte-stimulating hormone, DMSO, Sigma, Article No.: D2650) are then added, so that the alpha-MSH concentration in the well is 10^−8 M. The plate is subsequently incubated again at 37° C. and 5% CO2 for 24 h. The process described in this section is repeated a further twice in total.
After the final incubation period, the medium is removed by suction, and the cells are washed with 1000 μl of DPBS (Invitrogen, Article No.: 14190). The medium is again removed by suction. […] of HyQtase cell detachment solution (Hyclone, Article No.: SV30030.01) are added to the cells. The 6-well plate is swirled a number of times, and the HyQtase cell detachment solution is subsequently removed by suction. The cells are then incubated in the incubator at 37° C. and 5% CO2 for 5 min. The cells are taken up in 1.5 ml of DPBS (Invitrogen, Article No.: 14190) and transferred into a cup (SARSTEDT, Ref. 72.692.005). The cell count is subsequently determined. To this end, the cells are stained with Trypan Blue and counted in a Neubauer counting chamber. The cells centrifuged for 1 min at 3500 g. The pellets obtained are photographed, and the supernatant is subsequently removed by suction. The pellets are dissolved in 1 ml of 1N NaOH at 80° C. for 1 h and then cooled to RT. Four times 200 μl per cup (as quadruple determination) are subsequently pipetted into a 96-well plate (VWR, Article No.: 4100636981), and the absorption at a wavelength of 405 nm is determined (Safire, Tecan). The content of melanin can be determined in this way by means of a calibration line.

melanin = settings: substance alone; Example 5 of WO 01/66105 A1; cited from earlier work

With `O=C1O[C@H]([C@@H](O)CO)C(O)=C1O` [Ascorbic acid] the “Relative melanin content in %” value ([1]; 3 mM) was 77.4%.
For `O.O.O=C(O)/C(O)=C(\O)C(=O)O` [Dihydroxyfumaric acid dihydrate], the “Relative melanin content in %” value ([1]; 0.5 mM) was 13.4% and the “skin-lightening action in comparison with known active compounds” value ([1]; comparison of the working example (Table 1), dihydrate) was “exceeds the action of lactic acid, glycolic acid and even kojic acid by a multiple; also recorded: higher compared with the hydroxy acids lactic acid and glycolic acid”.
In the case of `O=C(O)CO` [Glycolic acid], the “Relative melanin content in %” value ([1]; 0.5 mM) is reported as 67.3%.
In the case of `O=c1cc(CO)occ1O` [Kojic acid], the “Relative melanin content in %” value ([1]; 1 mM) is reported as 59%.
In the case of `CC(O)C(=O)O` (stereo not shown) [Lactic acid], the melanin-reducing action (melanin) is given as 40% and the “Relative melanin content in %” value ([1]; 11.1 mM) is given as 57.8%.

Reference: patent publication US20130266526A1, “DIHYDROXYFUMARIC ACID DERIVATIVES AND THE USE THEREOF FOR SKIN LIGHTENING” (MERCK PATENT GMBH, priority 2010, published 2013)
